Data published in patent US11655239B2 (SHANGHAI INSTITUTE OF MATERIAL MEDICA, CHINESE ACADEMY OF …, priority 2019, dated 2023).

Tests used:
Abl = Abl (Homo sapiens (Human), UniProt P00519); experiment: Enzyme selectivity test (ELISA), Abl; type: biochemical
Protocol: (§1) 1) Enzyme reaction substrate Poly(Glu, Tyr) 4:1 was diluted to 20 μg/mL with potassium-free PBS (10 mM sodium phosphate buffer, 150 mM NaCl, pH 7.2-7.4), and the microtiter plate was coated with 125 μL/well and placed at 37° C. for 12-16 hours of reaction. The liquid in the well was discard. The plate was washed three times with T-PBS (potassium-free PBS containing 0.1% Tween-20, 200 μL/well), 5 minutes each time. The ELISA plate was dried in an oven at 37° C. for 1 to 2 hours.
(§2) 2) Reaction buffer (50 mM HEPES pH 7.4, 50 mM MgCl2, 0.5 mM MnCl2, 0.2 mM Na3VO4, 1 mM DTT) diluted ATP solution (49 μL) was added to each well, 1 μL of the compound to be tested was added to each well, and then 50 μL of DDR2 kinase domain recombinant protein diluted in the reaction buffer was added to start the reaction. Two control wells without ATP were set in each experiment. The plate placed on a shaker (100 rpm) at 37° C. for 1 hour of reaction. The liquid in the well was discarded and the plate was washed three times with T-PBS.
(§3) 3) Antibody PY99 dilution solution (the antibody was diluted 1:500 with T-PBS containing BSA 5 mg/mL) was added at 100 μL/well, and shaken on a shaker at 37° C. for 0.5 hour of reaction. The liquid in the well was discarded and the plate was washed three times with T-PBS.
(§4) 4) Horseradish peroxidase labeled goat anti-murine secondary antibody dilution solution (the antibody is diluted 1:2000 with T-PBS containing BSA 5 mg/ml) was added at 100 μL/well, and shaken on a shaker at 37° C. for 0.5 hour of reaction. The liquid in the well was discarded and the plate was washed three times with T-PBS.
(§5) 5) 2 mg/ml of OPD color developing solution [diluted with 0.1 M citric acid-sodium citrate buffer (pH=5.4) containing 0.03% H2O2] was added at 100 μL/well and reacted for 1 to 10 minutes at 25° C. in the dark.
(§6) 6) 2M H2SO4 was added at 50 μL/well to stop the reaction, and a tunable wavelength microplate reader VERSAmax was used for reading at a wavelength of 490 nm.
(§7) The IC50 value was obtained by four-parameter regression using the software that came with the microplate reader. […]

[1] = test system: mouse model of BLM-induced lung injury; experiment: Total number of cells and protein concentration in BALF; type: in vivo; details: mice; 30, 60, 90 mg/kg oral qd
Protocol: 1. The determination of the total number of cells in BALF. The collected BALF was centrifuged at 1000 rpm at 4° C. for 10 minutes, and 25× Cocktail was added to the supernatant and stored at −80° C. for protein concentration detection and subsequent cytokine determination. The cell pellet was resuspend in 50 μL of saline. The total number of cells in BALF was determined with a cell counting instrument.
2. Determination of protein concentration. In the experiment, the BCA protein concentration determination kit (Beyotime) was used to determine the concentration of total protein in BALF. The experimental steps are as follows:
a. 0.8 ml protein standard formulation solution was added to a tube of protein standard (20 mg BSA), dissolved and mixed thoroughly to prepare a protein standard solution at 25 mg/ml. After preparation, the protein standard solution can be used immediately and stored at −20° C.
b. An appropriate amount of 25 mg/ml of protein standard solution was taken and diluted to the target concentration of 0.5 mg/ml. Note that the protein sample and the standard should be diluted with the same solution, or the standard can be diluted with 0.9% NaCl or PBS. […]
d. The absorbance in the wavelength range of 540-595 nm was measured or a microplate reader was used to measure A562.
e. The protein concentration in the sample was calculated according to the sample volume used and standard curve.

VEGFR-1 = VEGFR-1 (Homo sapiens (Human), UniProt P17948); experiment: Enzyme selectivity test (ELISA), VEGFR-1; type: biochemical
Protocol: as §1, §2, §3, §4, §5, §6, §7

RET = RET (Homo sapiens (Human), UniProt P07949); experiment: Enzyme selectivity test (ELISA), RET; type: biochemical
Protocol: as §1, §2, §3, §4, §5, §6, §7

ALK = ALK (Homo sapiens (Human), UniProt Q9UM73); experiment: Enzyme selectivity test (ELISA), ALK; type: biochemical
Protocol: as §1, §2, §3, §4, §5, §6, §7

PDGFR-β = PDGFR-β (Homo sapiens (Human), UniProt P09619); experiment: Enzyme selectivity test (ELISA), PDGFR-β; type: biochemical
Protocol: as §1, §2, §3, §4, §5, §6, §7

PDGFR-α = PDGFR-α (Homo sapiens (Human), UniProt P16234); experiment: Enzyme selectivity test (ELISA), PDGFR-α; type: biochemical
Protocol: as §1, §2, §3, §4, §5, §6, §7

Src = Src (Homo sapiens (Human), UniProt P12931); experiment: Enzyme selectivity test (ELISA), Src; type: biochemical
Protocol: as §1, §2, §3, §4, §5, §6, §7

EGFR = EGFR (Homo sapiens (Human), UniProt P00533); experiment: Enzyme selectivity test (ELISA), EGFR; type: biochemical
Protocol: as §1, §2, §3, §4, §5, §6, §7

ALK, sequence (Q9UM73 19-1620, species assumed): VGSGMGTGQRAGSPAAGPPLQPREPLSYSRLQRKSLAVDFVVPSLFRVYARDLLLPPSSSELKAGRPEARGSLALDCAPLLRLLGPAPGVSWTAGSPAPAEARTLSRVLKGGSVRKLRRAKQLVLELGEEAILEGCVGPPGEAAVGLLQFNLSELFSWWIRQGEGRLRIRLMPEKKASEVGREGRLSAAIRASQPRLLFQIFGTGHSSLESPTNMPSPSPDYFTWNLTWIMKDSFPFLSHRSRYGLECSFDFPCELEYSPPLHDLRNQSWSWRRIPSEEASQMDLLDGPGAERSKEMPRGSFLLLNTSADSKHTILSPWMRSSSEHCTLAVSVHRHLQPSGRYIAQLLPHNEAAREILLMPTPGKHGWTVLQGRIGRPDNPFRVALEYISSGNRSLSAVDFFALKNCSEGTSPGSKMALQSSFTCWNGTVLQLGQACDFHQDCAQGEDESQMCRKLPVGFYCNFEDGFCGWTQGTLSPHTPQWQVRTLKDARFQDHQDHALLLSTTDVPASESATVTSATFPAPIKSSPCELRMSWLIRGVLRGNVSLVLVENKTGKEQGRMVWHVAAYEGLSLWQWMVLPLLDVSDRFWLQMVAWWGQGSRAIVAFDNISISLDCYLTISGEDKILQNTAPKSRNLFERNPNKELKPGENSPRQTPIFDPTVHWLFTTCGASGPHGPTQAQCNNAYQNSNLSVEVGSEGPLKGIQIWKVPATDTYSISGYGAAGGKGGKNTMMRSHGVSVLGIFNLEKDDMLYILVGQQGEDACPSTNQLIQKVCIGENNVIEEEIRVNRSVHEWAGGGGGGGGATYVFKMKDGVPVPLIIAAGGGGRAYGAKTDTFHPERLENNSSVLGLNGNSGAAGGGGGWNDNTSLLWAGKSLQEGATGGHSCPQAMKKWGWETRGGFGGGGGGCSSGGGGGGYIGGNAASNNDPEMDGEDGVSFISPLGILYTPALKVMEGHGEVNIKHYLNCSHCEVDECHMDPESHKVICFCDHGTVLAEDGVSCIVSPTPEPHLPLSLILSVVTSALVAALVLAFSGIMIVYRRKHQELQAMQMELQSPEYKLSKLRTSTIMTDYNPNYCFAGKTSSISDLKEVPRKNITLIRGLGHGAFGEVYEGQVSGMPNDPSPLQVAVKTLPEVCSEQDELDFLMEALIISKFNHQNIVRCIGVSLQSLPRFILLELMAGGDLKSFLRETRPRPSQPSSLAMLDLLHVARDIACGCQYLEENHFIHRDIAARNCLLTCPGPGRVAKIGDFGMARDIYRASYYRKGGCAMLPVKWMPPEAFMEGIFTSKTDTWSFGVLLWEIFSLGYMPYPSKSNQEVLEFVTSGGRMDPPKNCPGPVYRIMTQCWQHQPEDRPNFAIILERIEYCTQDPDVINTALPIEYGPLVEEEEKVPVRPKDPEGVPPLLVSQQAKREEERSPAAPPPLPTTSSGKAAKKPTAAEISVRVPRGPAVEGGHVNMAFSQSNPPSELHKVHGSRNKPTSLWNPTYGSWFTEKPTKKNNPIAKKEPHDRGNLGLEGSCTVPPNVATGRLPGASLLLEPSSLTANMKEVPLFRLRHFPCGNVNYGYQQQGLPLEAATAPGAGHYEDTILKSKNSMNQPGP
EGFR, sequence (P00533 25-1210, species assumed): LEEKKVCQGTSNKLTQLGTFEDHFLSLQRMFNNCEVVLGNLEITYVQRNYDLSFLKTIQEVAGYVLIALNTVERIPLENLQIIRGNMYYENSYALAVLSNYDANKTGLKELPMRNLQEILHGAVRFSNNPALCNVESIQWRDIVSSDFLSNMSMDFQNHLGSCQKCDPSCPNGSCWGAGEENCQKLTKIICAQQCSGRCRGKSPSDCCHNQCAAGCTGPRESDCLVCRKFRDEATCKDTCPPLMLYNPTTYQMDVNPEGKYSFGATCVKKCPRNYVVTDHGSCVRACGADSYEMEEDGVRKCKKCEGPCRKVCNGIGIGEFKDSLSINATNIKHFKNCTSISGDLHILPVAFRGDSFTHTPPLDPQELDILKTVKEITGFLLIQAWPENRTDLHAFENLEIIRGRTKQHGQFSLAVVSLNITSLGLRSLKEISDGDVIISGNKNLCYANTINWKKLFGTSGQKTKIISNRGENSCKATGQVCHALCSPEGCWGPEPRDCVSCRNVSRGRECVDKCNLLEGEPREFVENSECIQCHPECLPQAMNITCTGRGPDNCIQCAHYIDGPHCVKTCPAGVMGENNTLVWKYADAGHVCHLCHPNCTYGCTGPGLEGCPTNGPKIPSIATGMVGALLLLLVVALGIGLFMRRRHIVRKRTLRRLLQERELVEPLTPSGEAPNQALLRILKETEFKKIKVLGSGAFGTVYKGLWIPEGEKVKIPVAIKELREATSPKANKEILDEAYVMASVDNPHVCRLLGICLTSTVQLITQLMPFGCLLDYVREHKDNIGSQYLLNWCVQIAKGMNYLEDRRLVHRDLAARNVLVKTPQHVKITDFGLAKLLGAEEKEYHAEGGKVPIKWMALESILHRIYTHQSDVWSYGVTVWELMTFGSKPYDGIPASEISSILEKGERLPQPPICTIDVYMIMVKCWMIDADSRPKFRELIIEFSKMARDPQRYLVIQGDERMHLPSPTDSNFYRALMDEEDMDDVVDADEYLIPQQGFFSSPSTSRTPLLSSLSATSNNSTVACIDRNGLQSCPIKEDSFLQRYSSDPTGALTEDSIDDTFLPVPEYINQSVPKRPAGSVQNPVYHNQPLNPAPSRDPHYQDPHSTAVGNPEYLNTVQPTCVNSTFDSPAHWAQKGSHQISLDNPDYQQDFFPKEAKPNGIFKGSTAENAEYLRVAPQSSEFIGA
Src, sequence (P12931 whole entry, looked up, species assumed): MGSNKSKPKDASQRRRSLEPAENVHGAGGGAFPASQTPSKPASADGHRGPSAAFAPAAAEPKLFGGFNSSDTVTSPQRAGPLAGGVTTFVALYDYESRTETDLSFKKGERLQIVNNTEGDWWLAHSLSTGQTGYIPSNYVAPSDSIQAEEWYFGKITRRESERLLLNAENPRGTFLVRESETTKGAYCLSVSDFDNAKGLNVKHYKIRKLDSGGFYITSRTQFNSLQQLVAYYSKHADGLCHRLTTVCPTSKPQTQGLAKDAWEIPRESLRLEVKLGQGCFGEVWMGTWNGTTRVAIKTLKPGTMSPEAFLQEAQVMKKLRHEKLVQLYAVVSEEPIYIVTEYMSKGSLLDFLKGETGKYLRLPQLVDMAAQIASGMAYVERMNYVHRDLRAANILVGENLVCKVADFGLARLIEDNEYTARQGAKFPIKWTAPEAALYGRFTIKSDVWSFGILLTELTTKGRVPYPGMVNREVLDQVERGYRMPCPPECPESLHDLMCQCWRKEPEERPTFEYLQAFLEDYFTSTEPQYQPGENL
PDGFR-β, sequence (P09619 33-1106, species assumed): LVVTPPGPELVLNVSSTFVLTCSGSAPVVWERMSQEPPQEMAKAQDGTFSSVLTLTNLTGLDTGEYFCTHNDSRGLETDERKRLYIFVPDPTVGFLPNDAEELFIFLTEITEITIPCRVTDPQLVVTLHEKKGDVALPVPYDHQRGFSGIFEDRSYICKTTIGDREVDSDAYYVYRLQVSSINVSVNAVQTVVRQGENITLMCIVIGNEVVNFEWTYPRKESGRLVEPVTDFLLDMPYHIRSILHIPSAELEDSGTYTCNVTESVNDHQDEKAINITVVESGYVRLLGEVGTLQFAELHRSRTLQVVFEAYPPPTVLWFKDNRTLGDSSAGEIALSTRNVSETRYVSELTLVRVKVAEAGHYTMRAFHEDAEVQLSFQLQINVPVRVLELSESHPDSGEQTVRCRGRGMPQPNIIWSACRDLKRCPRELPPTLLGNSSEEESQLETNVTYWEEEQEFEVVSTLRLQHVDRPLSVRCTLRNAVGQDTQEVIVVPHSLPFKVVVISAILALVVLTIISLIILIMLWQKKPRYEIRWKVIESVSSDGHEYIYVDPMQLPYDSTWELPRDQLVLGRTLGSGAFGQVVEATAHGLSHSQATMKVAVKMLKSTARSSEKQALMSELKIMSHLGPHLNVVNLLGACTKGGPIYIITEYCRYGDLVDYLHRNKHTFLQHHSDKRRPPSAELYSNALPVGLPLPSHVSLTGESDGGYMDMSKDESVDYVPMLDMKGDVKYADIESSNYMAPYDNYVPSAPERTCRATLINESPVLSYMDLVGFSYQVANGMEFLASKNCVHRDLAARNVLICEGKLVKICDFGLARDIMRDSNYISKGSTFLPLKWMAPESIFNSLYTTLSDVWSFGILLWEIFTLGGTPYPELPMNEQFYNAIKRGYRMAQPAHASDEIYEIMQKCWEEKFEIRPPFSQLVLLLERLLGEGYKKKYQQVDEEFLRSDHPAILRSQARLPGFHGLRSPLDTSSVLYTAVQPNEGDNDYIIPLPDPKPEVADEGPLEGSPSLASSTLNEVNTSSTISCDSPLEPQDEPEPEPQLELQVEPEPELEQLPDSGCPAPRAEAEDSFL

O=C(Nc1cccc(C(F)(F)F)c1)c1ccc(C2CC2)c(-c2ccc3nc(Nc4cnn(C5CC5)c4)ncc3c2)c1 [Compound S15, 4-cyclopropyl-3-(2-((1-cyclopropyl-1H-pyrazol-4-yl)amino)quinazolin-6-yl)-N-(3-(trifluoromethyl)phenyl)benzamide]
IC50 (Abl): < 10 nM
protein concentration in BALF [1]: reduce the number of inflammatory cells and the concentration of related proteins in a dose-dependent manner
total number of inflammatory cells in BALF [1]: reduce the number of inflammatory cells and the concentration of related proteins in a dose-dependent manner
IC50 (VEGFR-1): > 1000 nM
IC50 (RET): > 1000 nM
IC50 (ALK): > 1000 nM
IC50 (PDGFR-β): > 1000 nM
IC50 (PDGFR-α): > 1000 nM
IC50 (Src): > 100 nM
IC50 (EGFR): > 1000 nM
